Data: patent US4916122A, “3'-Azido-2',3'-dideoxyuridine anti-retroviral composition” (University of Georgia Research Foundation, Inc., priority 1987, dated 1990)
In brackets after ≈: the same amount, converted by molar mass. Several values for one entry are separate records, joined by “and”; a condition that tells them apart may be missing. Equal values may be shown once. Read-outs that look alike come from different tables or passages of the source.

Tests used:
[1] = tested on: Mouse ecotropic (Cas-Br-M); test: Median effective antiviral concentration against mouse ecotropic virus (Table 5); type: cell-based, murine retrovirus; settings: unidentified retrovirus
Source text: (§1) A comparison of the differences in median effective an tiviral concentrations between human, non-human primate, and murine retroviruses is shown in Table 5. […] A further comparison of the activity of several nucleoside analogues, including CS-87, against HIV-1 and SIV in human PBM cells is shown in FIG. 6. The effect of delayed treatment with AZT, CS-87 or CS-91 on the replication of HIV-1 and SIV in human PBM cells is shown in FIGS. 7a, b, and c.

[2] = tested on: HIV-1 (Strain HTLV-III); test: Antiviral activity against HIV-1 in ATH-8 cells (Table 4)
[3] = tested on: HIV p24 and p41; test: Inhibition of HIV replication in human PBM cells, western blot analysis (Table 3)
[4] = tested on: NIH Swiss mice; settings: 67 days; for Hct / Hgb / MCH / MCHC / MCV / PLT / RBC / RDW / WBC: oral 0.5 mg/ml ad libitum
[5] = tested on: HIV (LAV-1); test: Median effective antiviral concentration against HIV (Table 5); type: cell-based; settings: HIV (LAV-1) vs Friend (EY-10) or Cas-Br-M
[6] = tested on: HIV-1 and SIV; test: Effect of delayed treatment on replication of HIV-1 and SIV in human PBM cells (FIG. 7); type: cell-based, HIV-1; SIV
Source text: as §1

`[N-]=[N+]=N[C@H]1C[C@H](n2ccc(=O)[nH]c2=O)O[C@@H]1CO` [CS-87, 3'-azido-2',3'-dideoxyuridine] was tested, and the EC50 [1] was 9.1 µM, the “activity compared to d2C in ATH-8 cells” value ([2]; ATH-8 cells) was “comparable activity to d2C” and the MIC ([2]; Human immunodeficiency virus 1, 240 h, read-out: ATH-8 (MIC)) was 0.4 µM (≈ 0.101 µg/mL). The “Western blot p24 (band intensity)” value ([3]; 0.1 μM) was 3+, the “Western blot p41 (band intensity)” value ([3]; 0.1 μM) was 2+ and the “Western blot p24 (band intensity)” value ([3]; 1 μM) was 2+. The “Western blot p41 (band intensity)” value ([3]; 1 μM) was 1+, the “Western blot p24 (band intensity)” value ([3]; 10 μM) was 0 and the “Western blot p41 (band intensity)” value ([3]; 10 μM) was 0. It also gave a Hct ([4]; Mean of group) of 42.4%, a Hgb ([4]; Mean of group) of 14.0 g/dL and an MCH ([4]; Mean of group) of 16.7 pg. The MCHC ([4]; Mean of group) was 33.1 g/dL, the MCV ([4]; Mean of group) was 50.4 fL and the PLT ([4]; Mean of group) was 1.3 × 10^6. For the same compound, the RBC ([4]; Mean of group) was 8.4 × 10^6, the RDW ([4]; Mean of group) was 26.0% and the WBC ([4]; Mean of group) was 8.0 × 10^3. For the same compound, the “toxicity compared to AZT (RBC and MCV values)” value ([4]; NIH Swiss mice, oral 0.5 mg/ml) was “significantly less toxicity”, the Hct ([4]; individual mouse) was 37.2% and 44.4% and 42.3% and 45.7% and the Hgb ([4]; individual mouse) was 12.9 g/dL and 14.1 g/dL and 14.2 g/dL and 14.8 g/dL. The MCH ([4]; individual mouse) was 16.9 pg and 16.4 pg and 16.6 pg and 16.8 pg, the MCHC ([4]; individual mouse) was 34.6 g/dL and 31.8 g/dL and 33.5 g/dL and 32.4 g/dL and the MCV ([4]; individual mouse) was 48.8 fL and 51.7 fL and 49.4 fL and 51.8 fL. The PLT ([4]; individual mouse) was 1.158 × 10^6 and 1.35 × 10^6 and 1.305 × 10^6 and 1.361 × 10^6, the RBC ([4]; individual mouse) was 7.6 × 10^6 and 8.6 × 10^6 and 8.8 × 10^6 and the RDW ([4]; individual mouse) was 34.3% and 16.8% and 37.7% and 15.3%. For the same compound, the WBC ([4]; individual mouse) was 2.6 × 10^3 and 8.9 × 10^3 and 7.9 × 10^3 and 12.6 × 10^3, the “effectiveness against HIV (LAV-1) compared with Friend or mouse ecotropic virus” value [5] was “much more effective” and the “effect of delayed treatment on replication of HIV-1 and SIV” value [6] was “time of administration is critical to the effectiveness of the treatment”.
